According to patent US20240398784A1, “C-LINKED ISOQUINOLINE AMIDES AS LRRK2 INHIBITORS, PHARMACEUTICAL COMPOSITIONS, AND USES THEREOF” (Merck Sharp & Dohme LLC, priority 2021, published 2024):

The compounds below were run against LRRK2 G2019S (Homo sapiens, UniProt Q5S007, G2019S) (assay: LRRK2 G2019S Km ATP LanthaScreen assay). Details: not given.
Type: biochemical

Chain of LRRK2 G2019S (Q5S007 whole entry G2019S): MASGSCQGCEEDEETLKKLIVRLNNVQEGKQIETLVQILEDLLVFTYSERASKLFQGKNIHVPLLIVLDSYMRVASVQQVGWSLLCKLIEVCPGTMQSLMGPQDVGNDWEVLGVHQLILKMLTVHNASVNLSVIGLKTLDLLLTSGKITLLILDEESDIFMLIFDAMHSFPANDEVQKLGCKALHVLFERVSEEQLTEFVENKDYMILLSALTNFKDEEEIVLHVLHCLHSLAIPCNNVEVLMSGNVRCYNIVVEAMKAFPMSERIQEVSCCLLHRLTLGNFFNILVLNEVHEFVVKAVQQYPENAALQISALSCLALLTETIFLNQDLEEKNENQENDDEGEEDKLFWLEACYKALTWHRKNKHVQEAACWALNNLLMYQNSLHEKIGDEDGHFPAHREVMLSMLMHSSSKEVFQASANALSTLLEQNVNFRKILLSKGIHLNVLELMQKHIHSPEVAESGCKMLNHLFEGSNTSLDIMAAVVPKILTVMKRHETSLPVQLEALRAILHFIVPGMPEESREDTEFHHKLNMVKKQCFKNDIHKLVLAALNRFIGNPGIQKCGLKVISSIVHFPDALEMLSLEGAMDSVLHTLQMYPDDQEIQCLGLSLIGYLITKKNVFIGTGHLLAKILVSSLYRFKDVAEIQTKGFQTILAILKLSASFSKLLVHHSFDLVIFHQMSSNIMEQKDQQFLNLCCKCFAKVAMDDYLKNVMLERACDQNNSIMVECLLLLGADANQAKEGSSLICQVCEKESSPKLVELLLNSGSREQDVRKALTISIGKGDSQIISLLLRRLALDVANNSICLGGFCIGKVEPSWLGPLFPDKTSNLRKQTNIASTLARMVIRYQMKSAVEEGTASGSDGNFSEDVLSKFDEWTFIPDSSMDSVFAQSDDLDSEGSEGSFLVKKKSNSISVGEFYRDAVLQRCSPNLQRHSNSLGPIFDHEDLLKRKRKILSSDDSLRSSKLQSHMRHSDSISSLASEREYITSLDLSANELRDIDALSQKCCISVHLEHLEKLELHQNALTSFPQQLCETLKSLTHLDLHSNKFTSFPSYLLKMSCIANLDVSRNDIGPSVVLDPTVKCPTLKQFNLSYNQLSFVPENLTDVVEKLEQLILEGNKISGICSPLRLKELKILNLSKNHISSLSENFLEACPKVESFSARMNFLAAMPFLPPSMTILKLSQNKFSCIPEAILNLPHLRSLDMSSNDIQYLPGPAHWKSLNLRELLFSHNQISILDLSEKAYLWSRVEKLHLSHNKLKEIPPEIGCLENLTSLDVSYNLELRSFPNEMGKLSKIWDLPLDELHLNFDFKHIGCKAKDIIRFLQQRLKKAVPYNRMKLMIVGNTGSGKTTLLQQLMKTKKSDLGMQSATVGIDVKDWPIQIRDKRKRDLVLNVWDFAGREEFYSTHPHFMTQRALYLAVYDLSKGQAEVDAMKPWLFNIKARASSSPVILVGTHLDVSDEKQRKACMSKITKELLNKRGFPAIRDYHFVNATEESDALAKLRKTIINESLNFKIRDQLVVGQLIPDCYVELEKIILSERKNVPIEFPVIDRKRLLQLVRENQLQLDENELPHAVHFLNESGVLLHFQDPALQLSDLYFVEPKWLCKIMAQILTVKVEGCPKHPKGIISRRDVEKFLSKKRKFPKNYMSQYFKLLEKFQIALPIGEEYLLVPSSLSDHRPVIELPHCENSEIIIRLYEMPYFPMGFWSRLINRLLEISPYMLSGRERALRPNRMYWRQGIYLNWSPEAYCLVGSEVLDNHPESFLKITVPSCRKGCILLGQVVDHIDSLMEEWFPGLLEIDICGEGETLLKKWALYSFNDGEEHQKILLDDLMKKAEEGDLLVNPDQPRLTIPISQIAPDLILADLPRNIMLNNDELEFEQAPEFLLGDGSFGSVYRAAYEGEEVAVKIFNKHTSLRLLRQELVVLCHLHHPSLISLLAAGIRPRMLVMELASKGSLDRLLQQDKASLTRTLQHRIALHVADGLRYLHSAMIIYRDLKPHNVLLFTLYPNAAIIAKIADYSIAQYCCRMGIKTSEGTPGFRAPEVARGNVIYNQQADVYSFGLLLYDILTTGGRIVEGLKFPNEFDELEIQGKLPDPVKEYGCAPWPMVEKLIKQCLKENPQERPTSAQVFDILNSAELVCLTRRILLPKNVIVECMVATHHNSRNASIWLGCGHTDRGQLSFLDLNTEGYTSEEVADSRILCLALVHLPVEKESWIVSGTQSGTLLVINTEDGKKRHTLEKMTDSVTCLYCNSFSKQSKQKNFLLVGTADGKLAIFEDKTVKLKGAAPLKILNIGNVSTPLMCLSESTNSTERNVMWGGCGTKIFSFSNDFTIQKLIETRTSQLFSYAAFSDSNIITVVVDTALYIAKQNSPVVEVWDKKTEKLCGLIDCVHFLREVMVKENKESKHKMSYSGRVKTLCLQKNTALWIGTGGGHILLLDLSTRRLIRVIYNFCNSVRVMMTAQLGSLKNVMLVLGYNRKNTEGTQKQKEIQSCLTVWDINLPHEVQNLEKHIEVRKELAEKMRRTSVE

LRRK2 pIC50 | SMILES
8.96 | CO[C@H]1C[C@H](C(=O)Nc2cc3cc(C4(C#N)CC45CC5)ccc3cn2)C1.O=C(O)C(F)(F)F (stereo partly drawn) [Ex-1.1]
10.09 | CC1(N2CCC(c3cc4cc(NC(=O)Cc5ccncc5)ncc4cc3Cl)CC2)COCC1O (stereo not drawn) [Ex-3.8]

Same assay, conditions: read-out: LRRK2 pIC50 (converted)

SMILES | IC50
CC(C)N1CCOC(CC(=O)Nc2cc3cc(C4(C#N)CC45CC5)ccc3cn2)C1 (single isomer, unassigned) [Ex-1.46, (R or S)-N-(6-(1-cyanospiro[2.2]pentan-1-yl)isoquinolin-3-yl)-2-(4-isopropylmorpholin-2-yl)acetamide] | 13.8 nM
CC1(N2CCC(c3cc4cc(NC(=O)c5cnn(C6CC6)c5Cl)ncc4cc3Cl)CC2)COCC1F (single isomer, unassigned) [Ex-1.51, 5-chloro-N-(7-chloro-6-(1-((3R,4R or 3S,4S)-4-fluoro-3-methyltetrahydrofuran-3-yl)piperidin-4-yl)isoquinolin-3-yl)-1-cyclopropyl-1H-pyrazole-4-carboxamide] | 0.112 nM
CC(C)(O)C1CC1C(=O)Nc1cc2cc(C3CCN(C4(C)COCC4O)CC3)c(Cl)cc2cn1 (stereo not drawn) [Ex-2.20] | 11.5 nM
N#CC1(c2ccc3cnc(NC(=O)C4CC(OC(F)F)C4)cc3c2)CC12CC2 (single isomer, unassigned) [Ex-2.5] | 9.77 nM
CCC(=O)N1CCC(C(C)C(=O)Nc2cc3cc(C4(C#N)CC45CC5)ccc3cn2)CC1 (stereo not drawn) [Ex-2.112] | 135 nM
N#CC1(c2ccc3cnc(NC(=O)C4CCN(CC(F)(F)F)C4)cc3c2)CC12CC2 (stereo not drawn) [Ex-2.43] | 31.6 nM
N#CC1(c2ccc3cnc(NC(=O)Cc4cnn(C(F)F)c4)cc3c2)CC12CC2 (single isomer, unassigned) [Ex-1.43, (R or S)-N-(6-(1-cyanospiro[2.2]pentan-1-yl)isoquinolin-3-yl)-2-(1-(difluoromethyl)-1H-pyrazol-4-yl)acetamide] | 7.08 nM
CC(C)(O)C1CC1C(=O)Nc1cc2cc(C3CCN(C4(C)COCC4O)CC3)c(Cl)cc2cn1 (stereo not drawn) [Ex-2.21] | 0.0813 nM
O=C(Nc1cc2cc(C3CCN(C4COC4)CC3)c(Cl)cc2cn1)C1CC12CCC2 (racemic) [Ex-1.14, Rac-N-(7-chloro-6-(1-(oxetan-3-yl)piperidin-4-yl)isoquinolin-3-yl)spiro[2.3]hexane-1-carboxamide] | 1.35 nM
CC(C(=O)Nc1cc2cc(C3(C#N)CC34CC4)ccc2cn1)c1cnn(C)c1 (stereo not drawn) [Ex-2.109] | 1.91 nM
Cn1ccc(C2CC2C(=O)Nc2cc3cc(C4(C#N)CC45CC5)ccc3cn2)n1 (stereo not drawn) [Ex-2.72] | 3.31 nM
CC(C)(F)C1CC1C(=O)Nc1cc2cc(C3CCN(C4(C)COCC4O)CC3)c(Cl)cc2cn1 (single isomer, unassigned) [Ex-4.47, N-(7-chloro-6-(1-(4-hydroxy-3-methyltetrahydrofuran-3-yl)piperidin-4-yl)isoquinolin-3-yl)-2-(2-fluoropropan-2-yl)cyclopropane-1-carboxamide] | 2 nM
Cn1ccc(C2CC2C(=O)Nc2cc3cc(C4(C#N)CC45CC5)ccc3cn2)n1 (stereo not drawn) [Ex-2.71] | 5.75 nM
CCOC1CC2(C1)CC2C(=O)Nc1cc2cc(C3CCN(C4(C)COCC4F)CC3)c(Cl)cc2cn1 (stereo not drawn) [Ex-2.82] | 0.0813 nM
CC1C(C(=O)Nc2cc3cc(C4CCN(C5(C)COCC5O)CC4)c(Cl)cc3cn2)C1c1ccccn1 (single isomer, unassigned) [Ex-4.53, N-(7-chloro-6-(1-(4-hydroxy-3-methyltetrahydrofuran-3-yl)piperidin-4-yl)isoquinolin-3-yl)-2-methyl-3-(pyridin-2-yl)cyclopropane-1-carboxamide] | 3.98 nM
N#CC1(c2ccc3cnc(NC(=O)C4CC4c4cccnc4)cc3c2)CC12CC2 (stereo not drawn) [Ex-2.45] | 11.2 nM
C[C@@]1(N2CCC(c3cc4cc(NC(=O)c5ccn(C6CC6)n5)ncc4cc3Cl)CC2)COC[C@@H]1O (single isomer, unassigned) [Ex-1.49, N-(7-chloro-6-(1-((3R,4R or 3S,4S)-4-hydroxy-3-methyltetrahydrofuran-3-yl)piperidin-4-yl)isoquinolin-3-yl)-1-cyclopropyl-1H-pyrazole-3-carboxamide] | 38.9 nM
C[C@H]1CC(F)(F)CC[C@H]1C(=O)Nc1cc2cc(C3CCN(C4COC4)CC3)c(Cl)cc2cn1 [Ex-1.11, (1R,2S)-N-(7-chloro-6-(1-(oxetan-3-yl)piperidin-4-yl)isoquinolin-3-yl)-4,4-difluoro-2-methylcyclohexane-1-carboxamide] | 39.8 nM

Other lines, results leading:

IC50 | SMILES
0.0813 nM | CC1(N2CCC(c3cc4cc(NC(=O)C5CC5C5CCCO5)ncc4cc3Cl)CC2)COCC1O (single isomer, unassigned) [Ex-4.69, N-(7-chloro-6-(1-(4-hydroxy-3-methyltetrahydrofuran-3-yl)piperidin-4-yl)isoquinolin-3-yl)-2-(tetrahydrofuran-2-yl)cyclopropane-1-carboxamide]
0.724 nM | CC1(C)CC(C(=O)Nc2cc3cc(C4CCN(C5(C)CCOC5)CC4)c(Cl)cc3cn2)CCO1 (single isomer, unassigned) [Ex-6.47, N-(7-chloro-6-(1-(3-methyltetrahydrofuran-3-yl)piperidin-4-yl)isoquinolin-3-yl)-2,2-dimethyltetrahydro-2H-pyran-4-carboxamide]
8.13 nM | CC1(N2CCC(c3cc4cc(NC(=O)C5C6COCC65)ncc4cc3Cl)CC2)CCOC1 (single isomer, unassigned) [Ex-6.12, N-(7-chloro-6-(1-(3-methyltetrahydrofuran-3-yl)piperidin-4-yl)isoquinolin-3-yl)-3-oxabicyclo[3.1.0]hexane-6-carboxamide]
0.0813 nM | CCC1C(C(=O)Nc2cc3cc(C4CCC(N5CC(C)(F)C5)CC4)c(Cl)cc3cn2)C1c1cnn(C)c1 (single isomer, unassigned) [Ex-11.1, (1R,2R,3R) or (1R,2S,3R) or (1S,2R,3S) or (1S,2S,3S)-N-(7-chloro-6-((cis or trans)-4-(3-fluoro-3-methylazetidin-1-yl)cyclohexyl)isoquinolin-3-yl)-2-ethyl-3-(1-methyl-1H-pyrazol-4-yl)cyclopropane-1-carboxamide]
0.575 nM | Cn1cc(C2CC2C(=O)Nc2cc3cc(C4CC(N5CC(F)C5)C4)c(Cl)cc3cn2)cn1 (single isomer, unassigned) [Ex-5.25, N-(7-chloro-6-(3-(3-fluoroazetidin-1-yl)cyclobutyl)isoquinolin-3-yl)-2-(1-methyl-1H-pyrazol-4-yl)cyclopropane-1-carboxamide]
3.09 nM | Cn1cc(C(=O)Nc2cc3cc(C4(C#N)CC45CC5)ccc3cn2)cn1 (single isomer, unassigned) [Ex-18.16, (R or S)-N-(6-(1-cyanospiro[2.2]pentan-1-yl)isoquinolin-3-yl)-1-methyl-1H-pyrazole-4-carboxamide]
38.9 nM | CC1OCCC1N1CCC(c2cc3cc(NC(=O)C4CC4)ncc3cc2Cl)CC1 (single isomer, unassigned) [Ex-9.10, N-(7-chloro-6-(1-(2-methyltetrahydrofuran-3-yl)piperidin-4-yl)isoquinolin-3-yl)cyclopropanecarboxamide]
1.51 nM | Cc1ccc(C2CC2C(=O)Nc2cc3cc(C4CCN(C5(C)COCC5O)CC4)c(Cl)cc3cn2)s1 (single isomer, unassigned) [Ex-4.58, N-(7-chloro-6-(1-(4-hydroxy-3-methyltetrahydrofuran-3-yl)piperidin-4-yl)isoquinolin-3-yl)-2-(5-methylthiophen-2-yl)cyclopropane-1-carboxamide]
2.45 nM | CC(C)n1nccc1C1CC1C(=O)Nc1cc2cc(C3CCN(C4(C)COCC4O)CC3)c(Cl)cc2cn1 (single isomer, unassigned) [Ex-4.64, N-(7-chloro-6-(1-(4-hydroxy-3-methyltetrahydrofuran-3-yl)piperidin-4-yl)isoquinolin-3-yl)-2-(1-isopropyl-1H-pyrazol-5-yl)cyclopropane-1-carboxamide]
0.0813 nM | CC1(N2CCC(c3cc4cc(NC(=O)C5CC56CCOCC6)ncc4cc3Cl)CC2)COCC1F (single isomer, unassigned) [Ex-6.24, N-(7-chloro-6-(1-(4-fluoro-3-methyltetrahydrofuran-3-yl)piperidin-4-yl)isoquinolin-3-yl)-6-oxaspiro[2.5]octane-1-carboxamide]
0.363 nM | CC(C)(O)C1CC1C(=O)Nc1cc2cc(C3CCN(C4(C)COCC4F)CC3)c(Cl)cc2cn1 (single isomer, unassigned) [Ex-6.28, N-(7-chloro-6-(1-(4-fluoro-3-methyltetrahydrofuran-3-yl)piperidin-4-yl)isoquinolin-3-yl)-2-(2-hydroxypropan-2-yl)cyclopropane-1-carboxamide]
9.12 nM | CC1C(C(=O)Nc2cc3cc(C4CCN(C5(C)COCC5O)CC4)c(Cl)cc3cn2)C1c1ccccn1 (single isomer, unassigned) [Ex-4.54, N-(7-chloro-6-(1-(4-hydroxy-3-methyltetrahydrofuran-3-yl)piperidin-4-yl)isoquinolin-3-yl)-2-methyl-3-(pyridin-2-yl)cyclopropane-1-carboxamide]
21.9 nM | Cn1cc(C(=O)Nc2cc3cc(C4CCN([C@]5(C)COC[C@@H]5O)CC4)c(Cl)cc3cn2)cn1 (single isomer, unassigned) [Ex-12.7, N-(7-chloro-6-(1-(4-hydroxy-3-methyltetrahydrofuran-3-yl)piperidin-4-yl)isoquinolin-3-yl)-1-methyl-1H-pyrazole-4-carboxamide]
0.955 nM | Cc1cc2cnc(NC(=O)C3CC3c3ccccn3)cc2cc1C1CCN(C2(C)CCOC2)CC1 (single isomer, unassigned) [Ex-16.11, N-(7-methyl-6-(1-(3-methyltetrahydrofuran-3-yl)piperidin-4-yl)isoquinolin-3-yl)-2-(pyridin-2-yl)cyclopropane-1-carboxamide]
0.115 nM | CC(C)(O)C1CC1C(=O)Nc1cc2cc(C3CCN(C4(C)CCOC4)CC3)c(Cl)cc2cn1 (single isomer, unassigned) [Ex-6.15, N-(7-chloro-6-(1-(3-methyltetrahydrofuran-3-yl)piperidin-4-yl)isoquinolin-3-yl)-2-(2-hydroxypropan-2-yl)cyclopropane-1-carboxamide]
3.63 nM | N#CC1(c2ccc3cnc(NC(=O)C4CC4)cc3c2)CC12CC2 (single isomer, unassigned) [Ex-18.2, N-(6-(1-cyanospiro[2.2]pentan-1-yl)isoquinolin-3-yl)cyclopropanecarboxamide]
